Assay results as given in US20070014803A1, “METHODS AND COMPOSITIONS FOR DIAGNOSIS AND TREATMENT OF VIRAL AND BACTERIAL INFECTIONS” (Arbor Vita Corporation, priority 2005, published 2007).
Where no end group is shown, it is not given here.

Assays:
Assay in all cases: PRISM Matrix ELISA G assay, peptide titration
Assay type in all cases: binding
PDZ protein NSP = target: T1, PDZ protein NSP (Homo sapiens, UniProt Q92743); details: for binding to the PDZ protein NSP, in words: summary of the titrations
T1 construct: made in house
T1 sequence (Q92743 359-473): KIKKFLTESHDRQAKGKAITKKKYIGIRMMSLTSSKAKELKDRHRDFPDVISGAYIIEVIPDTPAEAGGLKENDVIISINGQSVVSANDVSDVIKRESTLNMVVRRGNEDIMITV
Method: (§1) (1) A PDZ-domain polypeptide is bound to a surface, e.g. a protein binding surface. In a preferred embodiment, a GST/PDZ fusion protein containing one or more PDZ domains is bound to a polystyrene 96-well plate. […] In one embodiment, the GST/PDZ fusion protein is bound via an anti-GST antibody that is coated onto the 96-well plate. Adequate binding to the plate can be achieved when: • a. 100 μL per well of 5 μg/mL goat anti-GST polyclonal antibody (Pierce) in PBS is added to a polystyrene 96-well plate (e.g., Nunc Polysorb) at 4° C. for 12 hours. • b. The plate is blocked by addition of 200 μL per well of PBS/BSA for 2 hours at 4° C. • c. The plate is washed 3 times with PBS. • d. 50 μL per well of 5 μg/mL GST/PDZ fusion protein) or, as a negative control, GST polypeptide alone (i.e. not a fusion protein) in PBS/BSA is added to the plate for 2 hours at 4° C. • e. the plate is again washed 3 times with PBS.
(§2) (2) Biotinylated PL peptides are allowed to react with the surface by addition of 50 μL per well of 20 μM solution of the biotinylated peptide in PBS/BSA for 10 minutes at 4° C., followed by an additional 20 minute incubation at 25° C. The plate is washed 3 times with ice cold PBS.
(§3) (3) The binding of the biotinylated peptide to the GST/PDZ fusion protein surface can be detected using a variety of methods and detectors. In an exemplary procedure, 100 μL per well of 0.5 μg/mL streptavidin-horse radish peroxidase (HRP) conjugate dissolved in BSA/PBS is added and allowed to react for 20 minutes at 4° C. The plate is then washed 5 times with 50 mM Tris pH 8.0 containing 0.2% Tween 20, and developed by addition of 100 μL per well of HRP-substrate solution (TMB, Dako) for 20 minutes at room temperature (RT). The reaction of the HRP and its substrate is terminated by addition of 100 μL per well of 1 M sulfuric acid, and the optical density (O.D.) of each well of the plate is read at […].
(§4) (4) Specific binding of a PL peptide and a PDZ domain polypeptide is determined by comparing the signal from the well(s) in which the PL peptide and PDZ domain polypeptide are combined, with the background signal(s). The background signal is the signal found in the negative control(s). Typically a specific or selective reaction is at least twice background signal, more typically more than 5 times background, and most typically 10 or more times the background signal. In addition, a statistically significant reaction involves multiple measurements of the reaction with the signal and the background differing by at least two standard errors, more typically four standard errors, and most typically six or more standard errors. Correspondingly, a statistical test (e.g. a T-test) comparing repeated measurements of the signal with -repeated measurements of the background will result in a p-value <0.05, more typically a p-value <0.01, and most typically a p-value <0.001 or less. As noted, in an embodiment of the “G” assay, the signal from binding of a given PL peptide to immobilized (surface bound) GST polypeptide alone is one suitable negative control (sometimes referred to as “B 1”). Because all measurement are done in multiples (i.e. at least duplicate) the arithmetic mean (or, equivalently, average) of several measurements is used in determining the binding, and the standard error of the mean is used in determining the probable error in the measurement of the binding. The standard error of the mean of N measurements equals the square root of the following: the sum of the squares of the difference between each measurement and the mean, divided by the product of (N) and (N−1). Thus, in one embodiment, specific binding of the PDZ protein to the platebound peptide is determined by comparing the mean signal (“mean S”) and standard error of the signal (“SE”) for a particular PL-PDZ combination with the mean B I.
(§5) Two different types of ELISA assays were used to test the HIV Peptides 1904 and 1905. […]

[1] = target: T2, PDZ protein ZO-1 d2 (domain 2) (Homo sapiens, UniProt Q07157, DEL264-264); details: for EC50: read-out: EC50 of binding to the PDZ protein ZO-1 d2, regular G assay titration, GST/PDZ fusion (FIG. 1B, FIG. 4B); for binding to the PDZ protein ZO-1 d2, in words: summary of the titrations
T2 construct: made in house
T2 sequence (Q07157 with tags, fused parts or gaps DEL264-264): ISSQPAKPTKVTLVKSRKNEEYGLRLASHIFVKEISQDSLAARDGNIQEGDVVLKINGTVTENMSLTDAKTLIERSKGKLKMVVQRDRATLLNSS
Method: as §1, §2, §3, §4, §5

PDZ protein Rim2 = target: T3, PDZ protein Rim2 (Homo sapiens, UniProt Q9UQ26); details: for EC50: read-out: EC50 of binding to the PDZ protein Rim2, regular G assay titration, GST/PDZ fusion (FIG. 1C, FIG. 4C); for binding to the PDZ protein Rim2, in words: summary of the titrations
T3 construct: made in house
T3 sequence (Q9UQ26 632-757): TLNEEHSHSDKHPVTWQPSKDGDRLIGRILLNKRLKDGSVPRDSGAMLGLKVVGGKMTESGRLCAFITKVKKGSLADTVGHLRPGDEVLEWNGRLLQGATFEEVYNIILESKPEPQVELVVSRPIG
Method: as §1, §2, §3, §4, §5

Substance | EC50 (PDZ protein NSP; read-out: EC50 of binding to the PDZ protein NSP, regular G assay titration, GST/PDZ fusion (FIG. 1D, FIG. 4D)) | binding to the PDZ protein NSP, in words (PDZ protein NSP) | EC50 [1] | binding to the PDZ protein ZO-1 d2, in words [1] | EC50 (PDZ protein Rim2) | binding to the PDZ protein Rim2, in words (PDZ protein Rim2)
YGRKKRRQRRRRQGFERALL-OH [Peptide 1905] | 166 nM | strong binding | 184 nM | strong binding | 182 nM | strong binding
YGRKKRRQRRRRQGLERILL-OH [Peptide 1904] |  | strong binding | 170 nM | strong binding | 410 nM | strong binding
